From patent publication US9486422B2, “Small molecule inhibitors of Mcl-1 and the uses of thereof” (THE REGENTS OF THE UNIVERSITY OF MICHIGAN, priority 2011, dated 2016)

Experiments:
[1] = test system: AsPc1; assay: Cell growth inhibition (WST-8), AsPc1; format: cell-based; conditions: Homo sapiens, ASPC1, 96 h; 4 days treatment
Protocol: Human PC cell lines AsPC-1, BxPC-3 and Capan-2 were cultured in RPMI 1640 medium, while Panc-1 and MiaPaCa were cultured in DMEM medium (Life Technologies), all supplemented with 10% fetal bovine serum (Thermo Scientific HyClone). The rate of cell growth inhibition after treatment with increasing concentrations of the tested compounds was determined by WST-8 assay as described in the manufacturers protocol (Dojindo Molecular Technologies Inc.).

[2] = test system: activated Bax in BxPC-3 cells; assay: Bax activation, 6A7 anti-Bax immunostaining, BxPC-3; format: cell-based, human; conditions: 24 h
Protocol: (§1) Cells mounted on glass slides were permeabilized with PBS containing 0.3% Triton X-100, and blocked with 1% bovine serum albumin in PBS for 30 min at room temperature, followed with overnight incubation with anti-Bak 6A7 (Calbiochem) at 4° C. After thorough washing of the sections in PBS, a secondary antibody labeled with DyLight 488 (Thermo Scientific) was added and incubated for 2 h at room temperature. Nuclei were visualized with DAPI. Samples were analyzed with a FluoView 500 Confocal Laser Scanning Microscope (Olympus).

[3] = target: T1, cellular Mcl-1 protein (2LMP cell lysate) (Homo sapiens, UniProt Q07820); assay: Biotin-streptavidin pull-down with biotin-labeled Noxa BH3 peptide; format: binding
T1 construct: endogenous in cells; host or cells: 2LMP (subclone of MDA-MB-231) cell lysate
T1 sequence (Q07820 whole entry): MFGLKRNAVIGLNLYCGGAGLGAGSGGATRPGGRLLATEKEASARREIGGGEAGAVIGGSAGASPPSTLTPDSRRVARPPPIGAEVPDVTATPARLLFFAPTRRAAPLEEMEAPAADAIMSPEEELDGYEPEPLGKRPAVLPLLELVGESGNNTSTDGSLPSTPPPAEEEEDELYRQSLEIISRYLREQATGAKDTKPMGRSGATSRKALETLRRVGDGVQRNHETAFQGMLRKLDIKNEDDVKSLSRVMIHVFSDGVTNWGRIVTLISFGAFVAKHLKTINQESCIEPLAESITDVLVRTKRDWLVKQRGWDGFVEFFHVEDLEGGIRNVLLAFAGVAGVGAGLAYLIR
Protocol: Human breast cancer 2LMP cells, a subclone of the MDA-MB-231 cell line, were lysed in CHAPS buffer (10 mM HEPES (pH 7.4), 2.5 mM EDTA, 150 mM NaCl, 1.0% CHAP). Pre-cleared cell lysates were incubated with different concentrations of tested compounds, followed by incubation with biotinylated Noxa BH3 peptide (residues 18-43) and streptavidin-agarose beads to pull-down Mcl-1 protein bound to Noxa peptide. Beads were washed with CHAPS buffer, and Mcl-1 protein was eluted by boiling in SDS-PAGE sample buffer and analyzed by Western blotting using Mcl-1 antibody (Santa Cruz). DMSO alone was used as a control for nonspecific pull-down.

[4] = target: Mcl-1/Bax protein-protein interactions (Homo sapiens, UniProt Q07820); assay: SPR competitive solution binding assay, Mcl-1 to immobilized Bax; conditions: Mcl-1 300 nM pre-incubated with inhibitor; read-out: IC50, inhibition of binding of Mcl-1 to Bax
Sequence of Mcl-1/Bax protein-protein interactions (Q07820 171-327): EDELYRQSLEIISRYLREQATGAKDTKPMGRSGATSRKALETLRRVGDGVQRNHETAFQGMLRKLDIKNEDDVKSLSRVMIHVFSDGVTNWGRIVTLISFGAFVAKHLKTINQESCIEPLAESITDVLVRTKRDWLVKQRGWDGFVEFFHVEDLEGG
Protocol: SPR experiments were performed using Biacore 2000 optical biosensors. Recombinant Bax, residues 1 to 100 (Novus Biologicals) and Mcl-1 proteins were used for competitive solution binding experiments. The details for immobilization of Bax protein, determination of the binding affinity of Mcl-1 to Bax, and conditions for testing Mcl-1 compounds are provided.
Recombinant Bax protein (residues 1-100) purchased from Novus Biologicals, Inc., was immobilized on a CM-5 sensor chip at different densities using standard EDC/NHS coupling chemistry followed by ethanolamine deactivation of the surfaces. […] Determination of kon, koff and Kd were calculated by simultaneous non-linear regression using BIAEvaluation software.
Using the same Bax immobilized CM5 chip, SPR competitive solution binding experiments were performed by pre-incubated Mcl-1 protein (300 nM) with tested small-molecule inhibitors for at least 30 minutes and then the reaction mixture was injected over the surfaces of the chip. Response units were measured at 60 seconds in the dissociation phase and the specific binding was calculated by subtracting the control surface (Fc1) signal from the surfaces with immobilized Bax. […] IC50 values were determined by non-linear least squares analysis using Graph Pad Prism 5.0 software.

[5] = test system: patient bone marrow derived plasma cells; assay: Apoptosis (Annexin V-FITC/PI), multiple myeloma patient cells; format: cell-based, human
Protocol: Blood or bone marrow samples from multiple myeloma patients was obtained from treated or untreated patients after informed consent. Plasma cells were obtained after gradient density centrifugation using Ficoll Hypaque. Some samples were purified for […] population using flow cytometry. In all cases, purity of the plasma cells was higher than 90%, as assessed by morphology.
MM cell lines were cultured in six-well plates and treated as described above. At the end of the treatment the cells were washed and resuspended in annexin binding buffer (10 mM 4-(2-hydroxyethyl)-1-piperazineethanesulfonic acid pH 7.4, 140 mM NaCl, 2.5 mM CaCl2) after which Annexin V-FITC and Propodium Iodide solution was added (5 micro L each) according to manufactures protocol (BD Bioscences). Flow cytometry was performed using a FACSCanto (BD Biosciences, San Jose, Calif., USA).

[6] = target: Bcl-xL (Homo sapiens, UniProt Q07817, DEL45-85); assay: FP-based binding assay, Bcl-xL
Sequence of Bcl-xL (Q07817 other isoform, or with tags, fused parts or gaps DEL45-85): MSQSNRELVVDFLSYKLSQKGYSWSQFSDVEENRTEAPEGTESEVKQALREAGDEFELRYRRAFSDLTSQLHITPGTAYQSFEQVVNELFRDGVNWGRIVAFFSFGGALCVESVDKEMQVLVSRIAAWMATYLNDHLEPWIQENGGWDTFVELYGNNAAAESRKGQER

[7] = test system: bone marrow derived cells from patients with multiple myeloma; assay: Cellular viability (trypan blue), multiple myeloma patient cells; format: cell-based; conditions: Homo sapiens, 0-10 μM, 0-72 hrs
Description: Blood or bone marrow samples from multiple myeloma patients was obtained from treated or untreated patients after informed consent. Plasma cells were obtained after gradient density centrifugation using Ficoll Hypaque. Some samples were purified for C138^+ population using flow cytometry. In all cases, purity of the plasma cells was higher than 90%, as assessed by morphology.
Isolated MM cells were maintained in RPMI 1640 medium supplemented with 10% fetal bovine serum (Hyclone Laboratories, Logan, Utah) and 1% Penicillin-Streptomycin (Invitrogen, Carlsbad, Calif.), at 37° C. in a humidified incubator with 5% CO2. […] The number of viable cells was determined by trypan blue exclusion test with trypan blue (0.4%) purchased from Sigma Chemical Co. (St. Louis, Mo.). All experiments are performed in triplicate and statistical analysis was done using the t test (two tailed) with 95% confidence intervals between treated and untreated samples. P<0.05 was used to indicate statistical significance.

[8] = test system: Panc-1 cells; assay: Induction of apoptosis, Annexin V/PI, Panc-1; format: cell-based, human
Protocol: An Annexin-V-FLUOS/Propidium iodide staining kit and ELISA detection kit (Roche Applied Science) were used to detect apoptosis in PC cells. Cells were treated with Mcl-1 inhibitors for different time points, harvested, washed with PBS and apoptosis was quantified according to manufacturer's protocol.

[9] = test system: activated Bax in Panc-1 cells; assay: Bax activation, 6A7 anti-Bax immunostaining, Panc-1; format: cell-based, human; conditions: 24 h
Protocol: as §1

[10] = test system: wild type (WT) murine embryonic fibroblasts (MEF); assay: Induction of apoptosis in MEF WT cells; format: cell-based; conditions: 10 μM, 24 h

In the case of `O=C(O)CSc1cc(NS(=O)(=O)c2ccc(Br)cc2)c2ccccc2c1O` [Compound 9, 2-((4-(4-Bromophenylsulfonamido)-1-hydroxynaphthalen-2-yl)thio)acetic acid], the IC50 [1] is reported as 16.1 ± 4.2 µM, the “concentration from which activated Bax increases” value [2] is reported as no less than 5 µM and the “concentration from which BL-Noxa/cellular Mcl-1 interaction is blocked” value [3] is reported as no less than 10 µM. The “disruption of BL-Noxa/cellular Mcl-1 interaction, result in words” value [3] was “effectively disrupted”, the IC50 [4] was 1.43 ± 0.14 µM and the “apoptotic cells, early event” value ([5]; Pt 90620372, treated) was 10.1%. The “apoptotic cells, late event” value ([5]; Pt 90620372, treated) was 19.8%, the “apoptotic cells, early events” value ([5]; Pt 957034714, treated) was 32.9% and the “apoptotic cells, late events” value ([5]; Pt 957034714, treated) was 62.9%. The “apoptotic cells, early events” value ([5]; Pt 957060476, treated) was 13.3%, the “apoptotic cells, late events” value ([5]; Pt 957060476, treated) was 26.6% and the “fold lower affinity to Bcl-xL than to Mcl-1 (selectivity)” value [6] was “more than 50 fold”. For the same compound, the Ki ([6]; read-out: Bcl-xL Ki ± SD) was 33 ± 4.33 µM, the IC50 [7] was 2.5 to 5 µM and the early apoptotic cells ([8]; 5 μM, 24 hours) was 15%. The early apoptotic cells ([8]; 5 μM, 48 hours) was 21%, the early apoptotic cells ([8]; 10 μM, 24 hours) was 21% and the early apoptotic cells ([8]; 10 μM, 48 hours) was 49%. The “concentration from which activated Bax increases” value [9] was no less than 5 µM and the “apoptosis in MEF WT cells” value [10] was “more than 60%”.
